{"source": "patent US9610245B2", "about": "“Ophthalmic composition” (Drug Delivery Solutions Limited, priority 2011, dated 2017)", "assay": "Ex vivo permeation of cyclosporine through cornea, Ussing diffusion cells", "assay_type": "in vitro ADME, rabbit", "conditions": "excipient changed in or added to the Example 1 formulation", "protocol": "In order to determine the permeation of cyclosporine (CsA) formulations into and through the cornea, ex vivo studies were conducted. In brief, the corneas from rabbits were taken and mounted onto Ussing diffusion cells incubated at 37° C. and perfused with carbogen (95/5 oxygen/[…]). Approximately 3 ml sample was placed in the donor side of the chamber, 3 ml Ringers solution (6.5 g NaCl, 0.42 g KCl, 0.25 g CaCl2 and […] of Sodium bicarbonate per litre; isotonic solution pH 7.2) was placed in the receptor side of the chamber.\nPermeation across the cornea was determined by collecting 200 μl receptor phase at the appropriate time points. At time zero and at 8 hours (termination of the experiment) 100 μl of sample from the donor phase was taken for analysis. Corneas were collected and split into the stomal and epithelial parts. The cyclosporine in the cornea sections were analysed after extraction into 50/50 methanol/water. Levels of CsA in the receptor chamber, the cornea and in the donor chamber were determined by HPLC analysis. Formulations used were based on Example 1. The table below summarises the changes made to this formulation.", "data": [{"substance": "benzalkonium chloride", "values": [{"measurement": "effect of excipient on permeation of CsA into and through the cornea", "result": "no significant effect"}]}]}
